Test results reported in patent publication US9199943B2, “2-(poly-substituted aryl)-6-amino-5-halo-4-pyrimidinecarboxylic acids and their use as herbicides” (Dow AgroSciences, LLC., priority 2006, dated 2015).

Key:
Format in all cases: in vivo
[1] = system: HELAN = sunflower (Helainthus annuus); assay: General postemergence herbicidal activity, sunflower; conditions: post-emergence, 336 h; post-emergent, 140 g ai/ha, visual score after 14 days (0 no injury, 100 complete kill)
Method: Seeds or nutlets of the desired test plant species were planted in Sun Gro MetroMix® 306 planting mixture, which typically has a pH of 6.0 to 6.8 and an organic matter content of about 30 percent, in plastic pots with a surface area of 64 square centimeters. When required to ensure good germination and healthy plants, a fungicide treatment and/or other chemical or physical treatment was applied. The plants were grown for 7-21 days in a greenhouse with an approximate 15 hour photoperiod which was maintained at about 23-29° C. during the day and 22-28° C. during the night. Nutrients and water were added on a regular basis and supplemental lighting was provided with overhead metal halide 1000-Watt lamps as necessary. The plants were employed for testing when they reached the first or second true leaf stage.
A weighed amount, determined by the highest rate to be tested, of each test compound was placed in a 25 mL glass vial and was dissolved in 4 mL of a 97:3 v/v (volume/volume) mixture of acetone and dimethyl sulfoxide (DMSO) to obtain concentrated stock solutions. […] The concentrated stock solutions obtained were diluted with 20 mL of an aqueous mixture containing acetone, water, isopropyl alcohol, DMSO, Atplus 411F crop oil concentrate, and Triton X-155 surfactant in a 48.5:39:10:1.5:1.0:0.02 v/v ratio to obtain spray solutions containing the highest application rates. Additional application rates were obtained by serial dilution of 12 mL of the high rate solution into a solution containing 2 mL of 97:3 v/v (volume/volume) mixture of acetone and dimethyl sulfoxide (DMSO) and 10 mL of an aqueous mixture containing acetone, water, isopropyl alcohol, DMSO, Atplus 411F crop oil concentrate, and Triton X-155 surfactant in a 48.5:39:10:1.5:1.0:0.02 v/v ratio to obtain ½×, ¼×, ⅛× and 1/16× rates of the high rate. Compound requirements are based upon a 12 mL application volume at a rate of 187 L/ha. Formulated compounds were applied to the plant material with an overhead Mandel track sprayer equipped with a 8002E nozzles calibrated to deliver 187 L/ha over an application area of 0.503 square meters at a spray height of 18 inches (43 cm) above the average plant canopy height. Control plants were sprayed in the same manner with the solvent blank.
(§1) The treated plants and control plants were placed in a greenhouse as described above and watered by sub-irrigation to prevent wash-off of the test compounds. After 14 days, the condition of the test plants as compared with that of the untreated plants was determined visually and scored on a scale of 0 to 100 percent where 0 corresponds to no injury and 100 corresponds to complete kill.
By applying the well-accepted probit analysis as described by J. Berkson in Journal of the […], 48, 565 (1953) and by D. Finney in “Probit Analysis” Cambridge University Press (1952), the above data can be used to calculate GR50 and GR80 values, which are defined as growth reduction factors that correspond to the effective dose of herbicide required to kill or control 50 percent or 80 percent, respectively, of a target plant.

[2] = system: HORVS = barley (Hordeum vulare); assay: Postemergence herbicidal activity in cereal crops, barley; conditions: post-emergence, 480 h, post-emergent, barley (crop), after 20-22 days; for pest or weed control at 35 g/ha: 35 g ai/ha; for pest or weed control at 17.5 g/ha: 17.5 g ai/ha; for pest or weed control at 70 g/ha: 70 g ai/ha
Method: (§2) Seeds of the desired test plant species were planted in Sun Gro MetroMix® 306 planting mixture, which typically has a pH of 6.0 to 6.8 and an organic matter content of about 30 percent, in plastic pots with a surface area of 103.2 square centimeters. When required to ensure good germination and healthy plants, a fungicide treatment and/or other chemical or physical treatment was applied. The plants were grown for 7-36 days in a greenhouse with an approximate 14 hour photoperiod which was maintained at about 18° C. during the day and 17° C. during the night. Nutrients and water were added on a regular basis and supplemental lighting was provided with overhead metal halide 1000-Watt lamps as necessary. The plants were employed for testing when they reached the second or third true leaf stage.
(§3) A weighed amount, determined by the highest rate to be tested, of each test compound was placed in a 25 mL glass vial and was dissolved in 8 mL of a 97:3 v/v mixture of acetone and DMSO to obtain concentrated stock solutions. […] The concentrated stock solutions obtained were diluted with 16 mL of an aqueous mixture containing acetone, water, isopropyl alcohol, DMSO, Agri-dex crop oil concentrate, and Triton X-77 surfactant in a 64.7:26.0:6.7:2.0:0.7:0.01 v/v ratio to obtain spray solutions containing the highest application rates. Additional application rates were obtained by serial dilution of 12 mL of the high rate solution into a solution containing 4 mL of 97:3 v/v mixture of acetone and DMSO and 8 mL of an aqueous mixture containing acetone, water, isopropyl alcohol, DMSO, Agri-dex crop oil concentrate, and Triton X-77 surfactant in a 48.5:39.0:10.0:1.5:1.0:0.02 v/v ratio to obtain ½×, ¼×, ⅛× and 1/16× rates of the high rate. Compound requirements are based upon a 12 mL application volume at a rate of 187 L/ha. Formulated compounds were applied to the plant material with an overhead Mandel track sprayer equipped with a 8002E nozzles calibrated to deliver 187 L/ha over an application area of 0.503 square meters at a spray height of 18 inches (43 cm) above average plant canopy height. Control plants were sprayed in the same manner with the blank.
as §1, with “20-22” for “14”

LAMPU = Lamium purpureum = assay: Postemergence herbicidal activity in cereal crops, Lamium purpureum; conditions: post-emergence, 480 h, post-emergent, after 20-22 days; for pest or weed control at 35 g/ha: 35 g ai/ha; for pest or weed control at 17.5 g/ha: 17.5 g ai/ha; for pest or weed control at 70 g/ha: 70 g ai/ha
Method: as §2, §3
as §1, with “20-22” for “14”

Row | SMILES | pest or weed control at 140 g/ha [1] | pest or weed control at 35 g/ha [2] | pest or weed control at 35 g/ha (LAMPU = Lamium purpureum) | pest or weed control at 17.5 g/ha [2] | pest or weed control at 17.5 g/ha (LAMPU = Lamium purpureum) | pest or weed control at 70 g/ha [2] | pest or weed control at 70 g/ha (LAMPU = Lamium purpureum)
1 | CCOc1c(Cl)ccc(-c2nc(N)c(Cl)c(C(=O)OC)n2)c1F [Compound 1, 6-amino-5-chloro-2-(4-chloro-3-ethoxy-2-fluorophenyl)-pyrimidine-4-carboxylic acid methyl ester] | 100% | 0% | 85% |  |  |  | 
2 | COC(=O)c1nc(-c2c(F)cc(Cl)c(OC)c2F)nc(N)c1Cl [Compound 2, 6-amino-5-chloro-2-(4-chloro-2,6-difluoro-3-methoxy-phenyl)pyrimidine-4-carboxylic acid methyl ester] | 100% | 0% | 95% |  |  |  | 
3 | COC(=O)c1nc(-c2ccc(Cl)c(OC)c2F)nc(N)c1Cl [Compound 3, 6-amino-5-chloro-2-(4-chloro-2-fluoro-3-methoxyphenyl)-pyrimidine-4-carboxylic acid methyl ester] | 100% |  |  | 0% | 99% |  | 
4 | COC(=O)c1nc(-c2ccc(Cl)c(OC)c2Cl)nc(N)c1Cl [Compound 6, 6-Amino-5-chloro-2-(2,4-dichloro-3-methoxyphenyl)pyrimidine-4-carboxylic acid methyl ester] | 100% |  |  |  |  | 0% | 99%
5 | COC(=O)c1nc(-c2ccc(Cl)c(C(F)F)c2F)nc(N)c1Cl [Compound 7, 6-Amino-5-chloro-2-(4-chloro-3-difluoromethyl-2-fluorophenyl)pyrimidine-4-carboxylic acid methyl ester] | 100% |  |  | 0% | 90% |  | 
6 | COC(=O)c1nc(-c2ccc(Cl)c(N(C)C)c2F)nc(N)c1Cl [Compound 8, 6-Amino-5-chloro-2-(4-chloro-3-dimethylamino-2-fluorophenyl)pyrimidine-4-carboxylic acid methyl ester] | 100% | 0% | 85% |  |  |  | 
7 | COC(=O)c1nc(-c2ccc3c(c2F)OCO3)nc(N)c1Cl [Compound 9, 6-Amino-5-chloro-2-(4-fluorobenzo[1,3]dioxol-5-yl)pyrimidine-4-carboxylic acid methyl ester] | 100% |  |  |  |  | 0% | 100%
8 | COC(=O)c1nc(-c2ccc(Cl)c(OCC(F)F)c2F)nc(N)c1Cl [Compound 10, 6-Amino-5-chloro-2-[4-chloro-3-(2,2-difluoroethoxy)-2-fluorophenyl]-pyrimidine-4-carboxylic acid methyl ester] | 80% |  |  |  |  | 0% | 85%
9 | COC(=O)c1nc(-c2ccc(Cl)c(OC)c2F)nc(N)c1Br [Compound 13, 6-amino-5-bromo-2-(4-chloro-2-fluoro-3-methoxyphenyl)-pyrimidine-4-carboxylic acid methyl ester] | 100% |  |  | 0% | 95% |  | 
